Experimental data published in ChEMBL document CHEMBL1201862, “PubChem BioAssay data set” (2004).
Active and inactive are the calls of the source.

Experiments:
[1] = biological target: T1, DNA repair protein RAD52 homolog (Homo sapiens, UniProt P43351); format: functional, biochemical
T1 sequence (P43351 whole entry): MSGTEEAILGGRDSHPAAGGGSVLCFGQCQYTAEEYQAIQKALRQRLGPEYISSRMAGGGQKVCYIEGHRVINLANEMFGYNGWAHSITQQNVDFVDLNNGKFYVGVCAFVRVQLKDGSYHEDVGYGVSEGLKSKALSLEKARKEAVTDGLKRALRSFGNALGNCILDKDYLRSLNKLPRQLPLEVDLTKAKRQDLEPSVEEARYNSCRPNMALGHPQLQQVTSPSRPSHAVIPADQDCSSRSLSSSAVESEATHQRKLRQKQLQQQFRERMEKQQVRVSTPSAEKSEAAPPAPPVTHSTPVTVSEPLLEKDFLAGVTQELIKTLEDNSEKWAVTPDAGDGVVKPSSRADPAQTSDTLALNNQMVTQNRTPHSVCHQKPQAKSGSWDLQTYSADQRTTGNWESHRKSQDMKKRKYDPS

[2] = NIH-3T3 fibroblast cytotoxicity, dose response, cytotoxicity control, cell-based, fluorescence, Alamar Blue, secondary assay (AID 2327); format: functional;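 further: NIH-3T3 mouse fibroblasts cultured with fluconazole at 8 µg/mL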
[3] = biological target: T2, Ubiquitin-conjugating enzyme E2 N (Homo sapiens, UniProt P61088); format: functional;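 further: Dose-response confirmation in a TR-FRET assay detecting UBC13-driven polyubiquitin chain formation, inhibition measured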
T2 sequence (P61088 whole entry): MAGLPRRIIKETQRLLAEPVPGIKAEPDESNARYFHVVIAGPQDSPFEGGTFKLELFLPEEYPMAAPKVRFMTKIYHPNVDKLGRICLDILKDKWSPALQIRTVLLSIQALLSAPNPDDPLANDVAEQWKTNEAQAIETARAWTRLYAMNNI

[4] = biological target: Eukaryotic translation initiation factor 4E (Mus musculus, UniProt P63073); test: blockers of eIF4G binding by eIF4E – biochemical, TR-FRET, dose response (AID 855); format: functional;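 further: potency for disrupting eIF4E binding to eIF4GI seen as loss of FRET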
Chain of Eukaryotic translation initiation factor 4E (P63073 whole entry): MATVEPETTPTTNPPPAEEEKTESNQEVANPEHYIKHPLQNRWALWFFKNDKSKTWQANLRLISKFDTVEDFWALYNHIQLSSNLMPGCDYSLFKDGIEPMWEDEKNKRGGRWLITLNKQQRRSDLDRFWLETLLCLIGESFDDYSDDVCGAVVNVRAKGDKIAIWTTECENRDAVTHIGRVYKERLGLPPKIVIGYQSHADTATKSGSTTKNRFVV

[5] = viability of uninfected HEp-2 cells – cell-based, HTS, cytotoxicity control for RSV inhibitor project, dose response (AID 2410); format: functional; conditions: human respiratory syncytial virus
[6] = A Cell Based Secondary Assay To Explore Cytotoxicity of Compounds that Sensitize Mycobacterium Tuberculosis to Beta-Lactam Antibiotics.; format: functional
cells [7] = test: cells
Large T antigen = Large T antigen (Simian virus 40, UniProt P03070); format: functional, Betapolyomavirus macacae;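 further: Confirmatory-stage PubChem screen for compounds that inhibit SV40 T antigen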
Chain of Large T antigen (P03070 whole entry): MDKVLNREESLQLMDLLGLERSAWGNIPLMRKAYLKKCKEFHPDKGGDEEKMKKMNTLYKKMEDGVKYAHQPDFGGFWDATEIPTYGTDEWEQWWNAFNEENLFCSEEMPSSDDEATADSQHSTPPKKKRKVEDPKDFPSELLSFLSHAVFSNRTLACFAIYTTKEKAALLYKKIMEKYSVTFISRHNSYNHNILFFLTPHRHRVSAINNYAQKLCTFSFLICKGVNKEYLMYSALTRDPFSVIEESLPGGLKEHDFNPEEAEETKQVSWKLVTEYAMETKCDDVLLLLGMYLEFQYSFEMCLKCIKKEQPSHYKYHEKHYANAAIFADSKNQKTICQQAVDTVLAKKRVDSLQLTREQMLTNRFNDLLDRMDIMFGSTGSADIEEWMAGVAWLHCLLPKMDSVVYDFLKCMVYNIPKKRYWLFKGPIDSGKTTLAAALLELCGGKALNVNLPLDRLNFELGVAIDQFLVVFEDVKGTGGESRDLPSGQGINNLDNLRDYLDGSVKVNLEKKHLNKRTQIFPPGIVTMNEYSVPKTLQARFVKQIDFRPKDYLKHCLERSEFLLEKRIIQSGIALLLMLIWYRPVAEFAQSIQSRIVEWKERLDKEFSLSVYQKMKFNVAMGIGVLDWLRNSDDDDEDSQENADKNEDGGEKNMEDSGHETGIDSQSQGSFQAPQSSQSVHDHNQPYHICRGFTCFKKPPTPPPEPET

Nonstructural protein 1 = Nonstructural protein 1 (Influenza A virus, UniProt Q194T2); format: functional, Influenza A virus (A/California/07/2009(H1N1))
Chain of Nonstructural protein 1 (Q194T2 whole entry): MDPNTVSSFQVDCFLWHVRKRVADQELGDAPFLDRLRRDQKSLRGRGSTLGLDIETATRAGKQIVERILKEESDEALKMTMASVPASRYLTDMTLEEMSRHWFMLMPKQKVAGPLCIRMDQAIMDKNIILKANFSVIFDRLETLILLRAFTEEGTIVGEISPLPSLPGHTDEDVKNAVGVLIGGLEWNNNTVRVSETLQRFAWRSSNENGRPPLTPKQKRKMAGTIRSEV

[8] = biological target: T3, Microphthalmia-associated transcription factor (Homo sapiens, UniProt O75030); test: reducers of TRPM1 reporter luminescence, concentration series – cell-based, SK-MEL-5, cherry-picked, set 3, MITF inhibitor project, dose response (AID 493073); format: functional;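 further: SK-MEL-5 melanoma cells with luciferase driven by the MITF target TRPM1 promoter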
T3 sequence (O75030 whole entry): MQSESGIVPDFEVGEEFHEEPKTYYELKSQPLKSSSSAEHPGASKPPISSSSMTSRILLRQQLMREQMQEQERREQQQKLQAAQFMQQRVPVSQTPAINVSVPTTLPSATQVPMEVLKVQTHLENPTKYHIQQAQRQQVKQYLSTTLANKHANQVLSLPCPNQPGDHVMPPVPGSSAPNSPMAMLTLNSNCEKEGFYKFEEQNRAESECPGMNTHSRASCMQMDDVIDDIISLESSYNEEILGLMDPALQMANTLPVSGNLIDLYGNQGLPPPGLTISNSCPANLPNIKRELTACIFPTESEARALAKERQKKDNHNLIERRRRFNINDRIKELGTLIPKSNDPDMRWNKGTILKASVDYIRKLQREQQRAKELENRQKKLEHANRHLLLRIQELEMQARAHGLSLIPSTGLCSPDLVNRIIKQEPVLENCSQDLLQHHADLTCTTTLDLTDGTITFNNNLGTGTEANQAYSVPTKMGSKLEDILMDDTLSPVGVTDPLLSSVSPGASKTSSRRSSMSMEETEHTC

[9] = biological target: T4, Replicative DNA helicase DnaB (Mycobacterium tuberculosis, UniProt P9WMR3); test: DnaB intein splicing inhibitors, dose response, biochemical, cell-free fluorescence (AID 449749); format: functional
T4 sequence (P9WMR3 whole entry): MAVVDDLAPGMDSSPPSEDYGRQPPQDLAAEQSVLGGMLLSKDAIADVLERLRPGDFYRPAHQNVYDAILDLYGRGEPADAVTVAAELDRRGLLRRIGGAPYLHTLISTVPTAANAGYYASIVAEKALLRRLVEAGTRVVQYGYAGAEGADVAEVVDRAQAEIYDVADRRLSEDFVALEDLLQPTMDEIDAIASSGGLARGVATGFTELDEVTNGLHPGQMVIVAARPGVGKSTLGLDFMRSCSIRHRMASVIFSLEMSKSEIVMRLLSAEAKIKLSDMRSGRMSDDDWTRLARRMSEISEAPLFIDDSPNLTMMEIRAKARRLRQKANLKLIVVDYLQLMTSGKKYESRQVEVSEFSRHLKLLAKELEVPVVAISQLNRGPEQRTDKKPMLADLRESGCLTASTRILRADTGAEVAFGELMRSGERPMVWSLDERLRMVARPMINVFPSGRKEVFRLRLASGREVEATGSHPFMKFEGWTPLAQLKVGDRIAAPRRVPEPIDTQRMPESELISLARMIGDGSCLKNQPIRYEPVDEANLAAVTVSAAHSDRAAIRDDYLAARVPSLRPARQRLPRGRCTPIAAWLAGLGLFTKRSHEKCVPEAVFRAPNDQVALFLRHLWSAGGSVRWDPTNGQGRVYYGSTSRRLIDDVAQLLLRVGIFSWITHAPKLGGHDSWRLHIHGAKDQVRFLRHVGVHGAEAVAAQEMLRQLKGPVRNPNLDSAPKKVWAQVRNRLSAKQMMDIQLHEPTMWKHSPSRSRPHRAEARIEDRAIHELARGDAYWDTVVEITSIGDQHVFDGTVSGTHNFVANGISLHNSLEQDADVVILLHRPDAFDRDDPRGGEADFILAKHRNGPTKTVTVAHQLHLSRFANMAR

Protein RecA = biological target: T5, Protein RecA (Mycobacterium tuberculosis, UniProt P9WHJ3); test: Fluorescence Cell-Free Homogeneous Dose Retest to Identify Inhibitors of RecA-Intein Splicing Activity. [Related pubchem assays (depositor defined):AID2097, AID2223, AID489010, AID492950]; format: functional
T5 sequence (P9WHJ3 whole entry): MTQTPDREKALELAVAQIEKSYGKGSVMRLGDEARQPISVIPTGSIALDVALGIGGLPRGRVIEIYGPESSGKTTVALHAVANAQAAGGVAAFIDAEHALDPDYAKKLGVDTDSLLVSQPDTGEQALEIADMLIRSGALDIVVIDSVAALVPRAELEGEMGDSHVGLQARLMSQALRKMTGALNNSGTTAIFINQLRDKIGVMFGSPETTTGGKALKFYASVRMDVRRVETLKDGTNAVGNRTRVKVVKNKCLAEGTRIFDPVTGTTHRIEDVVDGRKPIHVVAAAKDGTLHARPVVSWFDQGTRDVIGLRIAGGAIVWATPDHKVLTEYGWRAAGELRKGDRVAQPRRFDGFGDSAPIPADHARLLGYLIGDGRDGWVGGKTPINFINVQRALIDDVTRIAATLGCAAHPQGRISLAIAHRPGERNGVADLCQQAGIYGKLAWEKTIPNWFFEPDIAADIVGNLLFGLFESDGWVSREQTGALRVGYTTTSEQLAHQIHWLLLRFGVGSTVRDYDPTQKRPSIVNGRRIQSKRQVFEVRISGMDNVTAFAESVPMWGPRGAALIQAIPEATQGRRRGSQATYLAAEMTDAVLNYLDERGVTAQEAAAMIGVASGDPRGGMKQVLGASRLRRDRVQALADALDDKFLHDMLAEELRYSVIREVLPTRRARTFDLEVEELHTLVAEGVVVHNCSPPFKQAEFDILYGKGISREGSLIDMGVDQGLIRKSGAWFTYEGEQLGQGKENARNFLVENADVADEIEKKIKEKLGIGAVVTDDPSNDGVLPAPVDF

[10] = viability loss in HeLa cells – cytotoxicity control for MgcRacGAP inhibitor project, dose response (AID 624300); format: functional
[11] = biological target: T6, Rac GTPase-activating protein 1 (Homo sapiens, UniProt Q9H0H5); test: blockers of MgcRacGAP-driven Rac1 GTP hydrolysis – biochemical, ADP Hunter fluorescence, primary and confirmatory, confirmation (AID 624330); format: functional
T6 sequence (Q9H0H5 whole entry): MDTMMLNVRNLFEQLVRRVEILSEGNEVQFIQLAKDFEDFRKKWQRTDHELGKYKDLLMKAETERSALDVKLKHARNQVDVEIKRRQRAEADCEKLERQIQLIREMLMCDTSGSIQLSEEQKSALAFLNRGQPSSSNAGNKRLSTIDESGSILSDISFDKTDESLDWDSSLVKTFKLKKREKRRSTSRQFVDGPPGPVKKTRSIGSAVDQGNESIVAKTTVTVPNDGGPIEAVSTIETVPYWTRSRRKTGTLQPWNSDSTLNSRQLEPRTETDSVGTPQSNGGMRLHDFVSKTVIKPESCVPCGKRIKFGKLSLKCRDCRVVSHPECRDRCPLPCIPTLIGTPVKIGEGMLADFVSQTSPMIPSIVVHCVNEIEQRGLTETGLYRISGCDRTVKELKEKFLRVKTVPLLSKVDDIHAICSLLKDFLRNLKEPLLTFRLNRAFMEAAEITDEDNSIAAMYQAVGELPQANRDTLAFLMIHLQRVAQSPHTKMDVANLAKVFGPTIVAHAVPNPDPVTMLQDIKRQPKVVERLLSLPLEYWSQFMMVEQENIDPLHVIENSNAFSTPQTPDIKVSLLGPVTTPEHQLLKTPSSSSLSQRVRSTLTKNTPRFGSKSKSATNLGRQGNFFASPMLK

[12] = biological target: Heat shock protein HSP 90-alpha (Homo sapiens, UniProt P07900); format: functional, organism-based
[13] = biological target: Nuclear receptor subfamily 5 group A member 2 (Homo sapiens, UniProt O00482); format: functional, cell-based;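 further: HEK293T cells transfected with LRH-1 and a StAR promoter luciferase reporter; potency for inhibitors that lower LRH-1 driven reporter light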
Chain of Nuclear receptor subfamily 5 group A member 2 (O00482 whole entry): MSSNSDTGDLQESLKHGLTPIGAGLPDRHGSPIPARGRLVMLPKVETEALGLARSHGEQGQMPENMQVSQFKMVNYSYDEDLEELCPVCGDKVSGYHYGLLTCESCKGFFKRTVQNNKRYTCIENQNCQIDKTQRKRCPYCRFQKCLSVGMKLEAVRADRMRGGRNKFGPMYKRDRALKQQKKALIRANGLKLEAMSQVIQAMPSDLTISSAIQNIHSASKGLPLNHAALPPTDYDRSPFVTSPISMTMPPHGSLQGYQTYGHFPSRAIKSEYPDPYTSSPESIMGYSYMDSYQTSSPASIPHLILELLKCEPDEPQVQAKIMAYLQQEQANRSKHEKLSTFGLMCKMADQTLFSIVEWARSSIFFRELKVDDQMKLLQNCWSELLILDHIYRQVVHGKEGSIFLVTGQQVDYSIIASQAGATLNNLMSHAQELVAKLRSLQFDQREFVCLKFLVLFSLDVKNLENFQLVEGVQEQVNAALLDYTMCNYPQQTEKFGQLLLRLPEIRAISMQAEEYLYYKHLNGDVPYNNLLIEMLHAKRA

Steroidogenic factor 1 = Steroidogenic factor 1 (Homo sapiens, UniProt Q13285); test: Counterscreen for inverse agonists of the liver receptor homolog-1 (LRH-1; NR5A2): Luminescence-based cell-based high throughput dose response assay to identify inverse agonists of the Steroidogenic Factor 1 Nuclear Receptor (SF1; NR5A1).; format: functional
Chain of Steroidogenic factor 1 (Q13285 whole entry): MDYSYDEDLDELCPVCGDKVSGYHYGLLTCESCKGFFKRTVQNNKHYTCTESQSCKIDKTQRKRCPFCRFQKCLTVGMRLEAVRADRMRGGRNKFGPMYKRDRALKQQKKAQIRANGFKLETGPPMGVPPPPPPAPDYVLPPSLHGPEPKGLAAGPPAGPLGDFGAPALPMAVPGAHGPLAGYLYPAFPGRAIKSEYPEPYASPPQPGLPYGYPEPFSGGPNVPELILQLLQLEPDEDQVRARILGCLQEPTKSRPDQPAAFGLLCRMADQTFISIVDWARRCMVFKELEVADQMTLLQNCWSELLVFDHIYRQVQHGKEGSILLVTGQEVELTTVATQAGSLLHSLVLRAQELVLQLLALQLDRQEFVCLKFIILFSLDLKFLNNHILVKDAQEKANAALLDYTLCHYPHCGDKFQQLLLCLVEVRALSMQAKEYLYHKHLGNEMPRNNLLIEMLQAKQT

[14] = nonselective StAR promoter luciferase inhibitors – cell-based, luminescence, luciferase reporter, counter-screen for LRH-1 inverse agonist project, dose response (AID 651969); format: functional
Paired box protein Pax-8 = Paired box protein Pax-8 (Homo sapiens, UniProt Q06710); test: PAX8 transcriptional activity inhibition in RMG-I – RMG-I cells, luciferase, cherry-pick, dose response (AID 687027); format: functional, cell-based;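 further: luciferase reporter driven by Pax8 target thyroperoxidase promoter measured by SteadyGlo luminescence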
Chain of Paired box protein Pax-8 (Q06710 whole entry): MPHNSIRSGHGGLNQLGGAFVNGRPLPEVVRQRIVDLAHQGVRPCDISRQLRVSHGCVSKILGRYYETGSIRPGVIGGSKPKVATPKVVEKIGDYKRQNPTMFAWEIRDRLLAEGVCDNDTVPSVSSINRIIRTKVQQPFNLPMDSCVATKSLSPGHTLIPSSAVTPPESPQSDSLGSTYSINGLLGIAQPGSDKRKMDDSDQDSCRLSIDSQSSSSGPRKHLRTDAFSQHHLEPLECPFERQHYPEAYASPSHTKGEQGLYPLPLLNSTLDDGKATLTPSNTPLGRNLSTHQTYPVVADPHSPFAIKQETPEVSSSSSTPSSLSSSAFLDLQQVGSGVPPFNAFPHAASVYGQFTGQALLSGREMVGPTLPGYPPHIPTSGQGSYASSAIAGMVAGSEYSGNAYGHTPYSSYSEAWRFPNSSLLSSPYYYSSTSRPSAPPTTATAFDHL

cells [15] = format: functional, cell-based
[16] = fluconazole-exposed Candida albicans growth modulators – fluorescence, retest, confirmation (AID 2467); format: functional, cell-based
cells [17] = format: functional, cell-based; remark: listed apart in the source

## COc1ccc2c(c1O)-c1cccc3c1[C@@H](C2)N(C)CC3
[1]
  AC50: 10.7 µM (active)

## NC1=NC[C@H](Cc2ccc(O)cc2)N1CCC12CC3CC(CC(C3)C1)C2
[2]
  EC50: > 160 µM (inactive)
[3]
  IC50: > 20 µM (inactive)
[1]
  AC50: 18.5 µM (active)

## CC(C)c1ccc(CN2CCC(C(=O)NCc3cccnc3)CC2)cc1
[4]
  IC50: > 64 µM (inactive)

## Cc1cccc(C)c1-n1c(C)cc(/C=C2\C(=O)NN(c3ccccc3)C2=O)c1C
[5]
  CC50: 36.6 µM (active)
[6]
  CC50: > 40 µM (active)
Cells [7]
  IC50: 7.55 µM (active)

## COC1=C(Nc2ccc(O)cc2)C(=O)c2ccccc2C1=O
Large T antigen
  IC50: 9.88 µM (active)
Nonstructural protein 1
  IC50: 24.7 µM (active)
[8]
  AC50: 5.14 µM (active)
[9]
  AC50: > 380 µM (inactive)
Protein RecA
  EC50: 1.16 µM (active)
[10]
  CC50: 56.8 µM (active)
[11]
  IC50: 24.4 µM (active)

## CCN(CC)CC(O)Cn1c(C)c(-c2ccccc2)c2cc([N+](=O)[O-])ccc21 (stereo unspecified)
[1]
  AC50: 8.3 µM (active)

## O=C(NN1CCOCC1)c1cc(-c2ccc(Br)cc2)nc2ccccc12
[4]
  IC50: > 64 µM (inactive)

## CCN1/C(=C/c2ccc3cc(C)ccc3[n+]2CC)Sc2cc(C)ccc21
[12]
  AC50: 3.75 µM (active)
[10]
  CC50: 23.1 µM (active)
[11]
  IC50: 80.4 µM (active)

## Cc1ccc(C(=O)CSc2ncnc3sc4c(c23)CCCC4)cc1
[4]
  IC50: > 64 µM (inactive)

## COc1cc2nc(N(CCCN(C)C)C(=O)c3ccc(C(=O)c4ccccc4)cc3)sc2cc1OC
[1]
  AC50: 15.8 µM (active)

## CCCS(=O)(=O)N1CCN(S(=O)(=O)c2ccccc2)CC1
[4]
  IC50: > 64 µM (inactive)

## O=C(Nc1cccc(Cl)c1N1CCOCC1)c1ccc([N+](=O)[O-])o1
[6]
  CC50: > 40 µM (active)

## NS(=O)(=O)c1ccc(O)c(NC(=O)c2ccc([N+](=O)[O-])o2)c1
[6]
  CC50: > 40 µM (active)
[13]
  IC50: 4.16 µM (active)
Steroidogenic factor 1
  IC50: 1.52 µM (active)
[14]
  IC50: 35.9 µM (inactive)

## CN(C)CCOc1ccc2c(c1)C(=O)C(=Cc1ncc([N+](=O)[O-])n1C)C2
[1]
  AC50: 7.08 µM (active)
Paired box protein Pax-8
  AC50: 1.89 µM (active)

## CCN(CC)S(=O)(=O)c1ccc(N/N=C(\C)c2ccc(OC)cc2O)nc1
[2]
  EC50: 5.47 µM (active)
Cells [15]
  EC50: 29.1 µM (active)
[6]
  CC50: 3.86 µM (active)
[16]
  EC50: > 38 µM (not active)
Cells [17]
  EC50: > 350 µM (not active)

## O=C(N/N=C/c1cc([N+](=O)[O-])ccc1O)C1CC1
[6]
  CC50: > 40 µM (active)
